{"source": "patent US20040248967A1", "about": "“Promoter for production of nitric oxide or nitric oxide synthase, and cosmetic or pharmaceutical composition comprising the same” (AJINOMOTO CO., INC., priority 2001, published 2004)", "type_in_all_cases": "cell-based", "key": {"Angioendothelial cells": {"test_system": "Angioendothelial cells", "assay": "Nitric oxide production in cultured angioendothelial cells (Griess method)", "conditions": "for Formed amount of nitric oxide: 24 hours after addition, L-Arg, L-PCA, GA concentrations (mM) in the medium differ per Example as in Table 1, medium without L-arginine", "description": "Angioendothelial cells were cultured using a DMEM medium (Dulbecco-modified MEM) containing 10% fetal bovine serum (FBS). However, phenol red and L-arginine were not added to the medium. The cells were cultured in the medium for 24 hours. After 24 hours of the culture, L-2-pyrrolidone-5-carboxylic acid and L-arginine were added to the medium, the amounts to be added being different for each Example and Comparative Example, as shown in Table 1 below. The culture was further continued for 24 hours.\nThereafter, the produced amount of the nitric oxide was determined by measuring the nitrogen dioxide in the culture supernatant. Nitrogen dioxide was measured by Griess method. The number of the cells in the culture liquid were measured and the formed amount of the nitric oxide per 10^3 cells was expressed in terms of nmol. By the way, as negative controls, the example wherein neither arginine nor pyrrolidonecarboxylic acid was contained (Comparative Example 1) and the example wherein arginine was contained singly (Comparative Example 2) were used. Moreover, as a positive control, the example wherein arginine and glycolic acid were contained (Comparative Example 3) was used."}, "iNOS": {"test_system": "iNOS", "assay": "RT-PCR of iNOS messenger RNA in angioendothelial cells", "conditions": "L-PCA 1.0-10.0 mM, 24 hours, RT-PCR 40 cycles", "description": "(§1) Angioendothelial cells were cultured using a DMEM medium (Dulbecco-modified MEM) containing 10% fetal bovine serum (FBS). The cells were cultured in the medium for 24 hours. After 24 hours of the culture, the cells were further cultured in the medium to which L-pyrrolidonecarboxylic acid was added so as to achieve a predetermined concentration (See Table 3 given later) for 24 hours, and then the RNA was extracted. For reverse transcription of the RNA, a kit for reverse transcription (manufactured by GIBCO) was used to prepare the cDNA. The cDNA was then subjected to PCR (RT-PCR). Forty cycles of the PCR were carried out under the conditions of denaturing at 95° C. for 30 seconds, annealing at 59° C. for 60 seconds, and extension at 73° C. for 90 seconds.\n(§2) As has been described above, using RT-PCR, the expressed amounts of the messenger RNA's of cNOS and iNOS were determined. In this experiment, cNOS was detected, but iNOS was not detected. […] In the table, L-PCA means L-pyrrolidonecarboxylic acid."}, "cNOS": {"test_system": "cNOS", "assay": "RT-PCR of cNOS messenger RNA in angioendothelial cells", "conditions": "24 hours; for Expressed amount of cNOS (Relative ratio): messenger RNA by RT-PCR", "description": "as §1, §2"}}}
{"smiles": "N=C(N)NCCC[C@H](N)C(=O)O", "note": "[Comparative Example 2, L-arginine, reference compound]", "values": [{"measurement": "Formed amount of nitric oxide", "setting": "Angioendothelial cells", "value": 1.9, "unit": "nmol/10^3 cells"}]}
{"smiles": "O=C1CC[C@@H](C(=O)O)N1", "note": "[Example 1, L-2-pyrrolidone-5-carboxylic acid]", "values": [{"measurement": "Formed amount of nitric oxide", "setting": "Angioendothelial cells", "value": 1.4, "unit": "nmol/10^3 cells"}]}
{"smiles": "O=C1CC[C@@H](C(=O)O)N1", "note": "[L-PCA, L-2-pyrrolidone-5-carboxylic acid]", "values": [{"measurement": "promoting effect on the production of nitric oxide (in words)", "setting": "Angioendothelial cells; angioendothelial cells, 24 hours, comparison at 10 mM of added compound", "value": "exhibited a promoting effect on the production of nitric oxide"}, {"measurement": "expressed amount of messenger RNA of iNOS (detection)", "setting": "iNOS", "value": "not detected"}, {"measurement": "amount of cNOS depending on the amount of pyrrolidonecarboxylic acid added (in words)", "setting": "cNOS; 1.0-10.0 mM, RT-PCR", "value": "tended to increase"}, {"measurement": "Expressed amount of cNOS (Relative ratio)", "setting": "cNOS; L-PCA added 1.0 mM", "value": 1.00}, {"measurement": "Expressed amount of cNOS (Relative ratio)", "setting": "cNOS; L-PCA added 2.5 mM", "value": 1.25}, {"measurement": "Expressed amount of cNOS (Relative ratio)", "setting": "cNOS; L-PCA added 5.0 mM", "value": 1.40}, {"measurement": "Expressed amount of cNOS (Relative ratio)", "setting": "cNOS; L-PCA added 10.0 mM", "value": 1.75}]}
